Data on 9 compounds can be found in ChEMBL document CHEMBL5154707, “Synthesis and biological evaluation of novel hybrids of phenylsulfonyl furoxan and phenstatin derivatives as potent anti-tumor agents” (Eur J Med Chem, 2022).

Series [1] deals with A549. In words: cells. The note with it: Homo sapiens, A549, 48 h.
In series [2] the test system is MDA-MB-231. In words: cells. Conditions: Homo sapiens, MDA-MB-231, 48 h.
Description: Antiproliferative activity against human MDA-MB-231 cells after 48 hrs by MTT assay
Series [3] concerns HCT-116. In words: Antiproliferative activity against human HCT-116 cells after 48 hrs by MTT assay. Conditions: HCT-116, 48 h. In general terms: Tetrazolium assays rely on reduction of a dye to a coloured formazan, in cell work by metabolically active cells.
In series [4] the test system is A2780. In words: cells. The note with it: Homo sapiens, A2780, 48 h.
Description: Antiproliferative activity against human A2780 cells after 48 hrs by MTT assay
The target in series [5] is T1, Tubulin (Homo sapiens) (UniProt P68371+Q9H4B7+P0DPH7+P68366+Q13509+Q71U36+P04350+Q3ZCM7+P07437+P68363+Q9BQE3+Q6PEY2+Q13885+Q9BVA1+Q9BUF5). Description: Inhibition of tubulin polymerization in A549 cells assessed as disruption of microtubule network at 20 nM measured by immunofluorescence assay. The series is classed as cell-based.
The target of series [6] is T1, Tubulin (Homo sapiens). In words: Inhibition of tubulin polymerization in A549 cells assessed as disruption of microtubule network at 10 to 20 nM measured by immunofluorescence assay. Conditions: dose 10-20 nM. The series is classed as cell-based.
In series [7] the target is Tubulin (Sus scrofa, UniProt P02554+P02550). Description: Inhibition of pig brain tubulin polymerization.
For series [8], the system named is A2780. Description: Induction of nitric oxide release in human A2780 cells measured by Griess reagent based assay. The series is classed as functional, cell-based. On the technique in general: Griess reagent forms a coloured azo dye with nitrite.
Series [9] can be described thus: Cytotoxicity against human HOSE cells after 48 hrs by MTT assay. It is filed as toxicity, cell-based.
Series [10] in a line: Resistant factor, ratio of IC50 for antiproliferative activity against human A2780 cisR cells to IC50 for human A2780 cells. It is filed as functional.
Series [11] in a line: Resistant factor, ratio of IC50 for antiproliferative activity against human A2780/PTX cells to IC50 for human A2780 cells. The series is classed as functional.
A short description of series [12]: Antiproliferative activity against human A2780/PTX cells after 48 hrs by MTT assay.
Series [13] relates to A2780cisR. Description: Antiproliferative activity against human A2780 cisR cells after 48 hrs by MTT assay. The series is classed as functional, cell-based.

The source made the active and inactive calls. The calls are words filed in the database; no cut-off is given here.

As a reminder, the IC50 is the concentration at which inhibition is half-maximal. On to `COc1ccc(/C=C\c2cc(OC)c(OC)c(OC)c2)cc1O` [COMBRETASTATIN A4], for which the IC50 was found to be 6 nM in series [1] and 12 nM in series [2].
`COc1ccc(C(=O)c2ccc3ccccc3c2)cc1O`: the 50% inhibitory concentration (IC50) was 124000 nM in series [3], 170 nM in series [4], 34000 nM in series [1] and 120 nM in series [2].
Consider `COc1cc(OCCOc2no[n+]([O-])c2S(=O)(=O)c2ccccc2)cc(C(=O)c2ccc(Br)cc2)c1`, for which the inhibition entry in series [5] and in [6] was “Active” throughout. The half-maximal inhibitory concentration (IC50) in [7] worked out at 1600 nM.
On to `COc1ccc(C(=O)c2cc(OC)c(OC)c(OC)c2)cc1O` [PHENSTATIN], for which, in series [8], the outcome was Active. In series [9], this compound registered an IC50 at 48 h of 160 nM. Further, the “Ratio IC50” value in series [10] is given as 23.8; in [11] it was 77.9. In addition, the IC50 amounted to 170 nM in series [3]; 120 nM in series [4]; 9350 nM in [12]; 21000 nM in [1]; 2850 nM in [13]; 51 nM in series [2].
For `CC(=O)O[C@H]1C(=O)[C@@]2(C)[C@H]([C@H](OC(=O)c3ccccc3)[C@]3(O)C[C@H](OC(=O)[C@H](O)[C@@H](NC(=O)c4ccccc4)c4ccccc4)C(C)=C1C3(C)C)[C@]1(OC(C)=O)CO[C@@H]1C[C@@H]2O` [PACLITAXEL], half-maximal inhibition in series [9] (IC50 at 48 h) was put at 18 nM.
With `COc1ccc(C(=O)c2ccc(Cl)cc2)cc1O`, the half-inhibitory concentration (IC50) in [3] came to 2650 nM; in series [4] it was 3690 nM; in series [1], 6640 nM; in [2], 4180 nM.
On to `COc1ccc(C(=O)c2ccc(Br)cc2)cc1O`, for which the IC50 in series [3] stood at 3650 nM; in series [4] it was 1160 nM; in series [1] it was 224000 nM; in [2], 2110 nM.
`COc1ccc(C(=O)c2ccc(F)cc2)cc1O`: the IC50 in [3], in [4], in series [1] and in series [2] was more than 20000 nM in each case.
On to `O=S(=O)(c1ccccc1)c1no[n+]([O-])c1S(=O)(=O)c1ccccc1`, for which the result in [8] was Active. In addition, the figures for the IC50 in series [3], in [1] and in [2] were 2680 nM, 235000 nM and 1870 nM, respectively.
